The numbers were not newly measured in patent US20150320677A1, “EFFERVESCENT TABLET FORMULATIONS OF DAPOXETINE AND A PDE5 INHIBITOR” (Sanovel Ilac Sanayi Ve Ticaret Anonim Sirketi, priority 2012, published 2015), which cites them from elsewhere.

The conditions of data set [1]: in vivo, po.
The conditions of data set [2]: following oral administration.

For Dapoxetine, in data set [1], the “binding to plasma proteins” value is listed as “almost completely binding to plasma proteins”.

With `CN1CC(=O)N2[C@H](c3ccc4c(c3)OCO4)c3[nH]c4ccccc4c3C[C@@H]2C1=O` [tadalafil, (6R-trans)-6-(1,3-benzodioxol-5-yl)-2,3,6,7,12,12a-hexahydro-2-methyl-pyrazino[1′,2′:1,6]pyrido[3,4-b]indole-1,4-dione], the “onset of action takes (second sentence of b41)” value in data set [2] is “up to 36 hours”.
